In patent US20250163016A1, “PYRIDINE DERIVATIVE, PREPARATION METHOD THEREFOR AND USE THEREOF” (CHENGDU EASTON BIOPHARMACEUTICALS CO., LTD., priority 2022, published 2025):

Columns and labels:
[1] = Pharmacokinetics of oral and intravenous administration of rats; assay type: in vivo; conditions: male, rat, plasma, SD rats; for bioavailability: oral, p.o. 5.0 mg/kg vs i.v. 5.0 mg/kg, read-out: F (bioavailability)
Protocol: With SD rats as tested animals, blood drug concentrations of the compounds of the present application in plasma at different moments after oral administration and intravenous administration to the rats were determined using an LC-MS/MS method, pharmacokinetic parameters and bioavailabilities of the compounds of the present application in the rats were obtained, and pharmacokinetic characteristics of the compounds were studied.
• SD rats, male, weight 180-220 g, 3 rats per group. The animals were fed in an animal house after being purchased, an adaptation period was at least 3 days, and they were used for tests after passing quarantine.
3.2. Solvent: p.o.: 0.5% Sodium Methylcellulose Aqueous Solution
• i.v.: 5% DMSO+10% Solutol+85% Saline
According to Table 6, each group of rats was given the corresponding tested drugs or positive drugs by gavage, before administration, and 5 min, 15 min, 30 min, 1 h, 2 h, 4 h, 6 h, 8 h, 10 h and 24 h after administration, a fixed volume of blood was collected through eye sockets and placed in an EDTA-K2 anticoagulant tube, centrifuging was carried out at 8000 rpm for 1 min to separate plasma into a centrifuge tube, and the plasma was frozen in a −20° C. refrigerator.
The plasma at each time point stored at −20° C. was taken out, then acetonitrile was added, after whirling at 1500 revolutions for 2 min, centrifuging was carried out for 15 min (3500 r/min), and a fixed volume of solution supernatant was taken for LC-MS/MS analysis.
Non-compartment model fitting was carried out on pharmacokinetic behaviors of the tested compounds, and DAS3.31 software was adopted to calculate main pharmacokinetic parameters (T1/2, Tmax, Cmax, AUClast, etc.).

[2] = test system: Kasumi-1 cells; assay: Kasumi-1 cell proliferation inhibition test (Celltiter GLO); assay type: cell-based; conditions: Homo sapiens, 168 h, Kasumi-1, 7 days culture
Protocol: Research had confirmed that LSD1 played a crucial role in the occurrence process of various types of cancers, including small cell lung cancer (SCLC) and acute myeloid leukemia (AML). Therefore, a human acute myeloid leukemia (Kasumi-1) cell line was used to determine the ATP content in cells at different drug concentrations using a Celltiter GLO assay kit, the cell activity was reflected by luminescence intensity, and IC50 values of different compounds on Kasumi-1 cells were calculated using inhibition rates. The inhibitory effects of the compounds in the present application on the proliferation of Kasumi-1 cells were studied to evaluate the anti-tumor efficacy of the tested compounds at the cellular level.
• Day 1 Cells were seeded into the 384-well cell culture plate and placed in a 37° C. 5% CO2 cell incubator to be cultured overnight. • Day 0 The compound to be tested was prepared into a 10 mM mother liquid using DMSO, starting from […], diluted by 3 folds, with 10 concentration points and double duplicate wells. A diluted compound was added into the 384-well cell culture plate and placed in a 37° C. 5% CO2 cell incubator to be cultured for 7 days. The concentration of the DMSO in a cell culture system was 0.1 vol %. • Day 7 Celltiter GLO was added into the 384-well cell culture plate according to a volume ratio of culture system:Celltiter GLO=1:1, light-shielded oscillation was carried out on a plate oscillator for 3 min, then the cell culture plate was placed at the room temperature for 30 min with light shielded, and the plate was read using a multifunctional microplate reader chemical light emitting module.
An inhibition rate was calculated by utilizing luminescence intensity of the above DMSO group (with DMSO added), test group (with the tested compound or a positive control solution added) and blank group (not treating cells), and a calculation formula was as follows: […]
Using a logarithm of the concentration as an X axis and the percentage inhibition rate as a Y axis, a dose-response curve was fitted using a formula log(inhibitor) vs. response-Variable slope (Four parameters) of analysis software Graphpad Prism 8 to obtain the IC50 value of each compound on Kasumi-1 proliferation inhibition activity.

[3] = target: T1, hERG ion channel (Homo sapiens, UniProt Q12809); assay: In-vitro hERG inhibitory activity (whole cell patch clamp, HEK293 cells); assay type: cell-based; conditions: HEK293 cells stably expressing hERG channels, read-out: IC50 on hERG current
T1 construct: expressed in transfected cells; host or cells: HEK293
T1 sequence (Q12809 whole entry): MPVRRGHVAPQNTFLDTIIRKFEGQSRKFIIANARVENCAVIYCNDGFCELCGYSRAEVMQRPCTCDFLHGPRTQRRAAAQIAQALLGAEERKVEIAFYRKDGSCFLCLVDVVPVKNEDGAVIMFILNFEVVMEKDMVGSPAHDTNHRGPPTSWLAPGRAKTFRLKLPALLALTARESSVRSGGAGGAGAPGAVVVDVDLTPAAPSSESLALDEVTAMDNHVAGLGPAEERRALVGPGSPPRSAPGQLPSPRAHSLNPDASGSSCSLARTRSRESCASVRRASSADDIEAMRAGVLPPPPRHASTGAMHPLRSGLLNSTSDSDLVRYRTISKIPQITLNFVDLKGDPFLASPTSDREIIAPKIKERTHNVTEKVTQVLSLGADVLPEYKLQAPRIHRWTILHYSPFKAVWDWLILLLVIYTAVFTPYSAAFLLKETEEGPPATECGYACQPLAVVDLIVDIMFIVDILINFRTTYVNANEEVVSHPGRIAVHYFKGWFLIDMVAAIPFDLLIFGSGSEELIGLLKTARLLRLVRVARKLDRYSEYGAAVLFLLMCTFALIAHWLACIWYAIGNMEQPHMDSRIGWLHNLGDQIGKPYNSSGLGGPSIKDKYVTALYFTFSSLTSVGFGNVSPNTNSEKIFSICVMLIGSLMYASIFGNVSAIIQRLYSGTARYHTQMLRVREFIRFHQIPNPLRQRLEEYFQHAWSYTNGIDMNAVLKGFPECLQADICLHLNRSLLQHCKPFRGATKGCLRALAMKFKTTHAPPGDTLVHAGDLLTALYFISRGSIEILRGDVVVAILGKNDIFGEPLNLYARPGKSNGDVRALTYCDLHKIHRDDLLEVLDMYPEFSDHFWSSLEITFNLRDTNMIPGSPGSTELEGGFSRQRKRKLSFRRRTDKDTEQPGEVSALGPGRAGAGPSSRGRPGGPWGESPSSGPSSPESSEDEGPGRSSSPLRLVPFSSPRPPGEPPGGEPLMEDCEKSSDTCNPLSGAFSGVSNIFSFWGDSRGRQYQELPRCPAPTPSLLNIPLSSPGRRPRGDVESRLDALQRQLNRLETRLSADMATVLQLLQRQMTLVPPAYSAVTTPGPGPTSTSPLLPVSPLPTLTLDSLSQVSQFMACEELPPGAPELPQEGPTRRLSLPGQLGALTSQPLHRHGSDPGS
Protocol: A whole cell sheet technology was used to detect the blocking effects of compounds on hERG channels on HEK293 cells stably expressing hERG channels, and a median inhibitory concentration IC50 of the compound was determined. As part of cardiac safety evaluation, its safety in-vitro screening for cardiac toxicity was preliminarily evaluated.
• HEK293 cells stably expressing hEGR ion channels
Electrodes were drawn using PC-10 (Narishige, Japan). The whole cell patch clamp was used for recording, and noise was filtered using one fifth of a sampling frequency. The cells were clamped at −80 mV, then depolarized to 40 mV using square waves lasting for 4 seconds, and then hyperpolarized to −40 mV using square waves lasting for 2 seconds to obtain an hERG tail current. This procedure was repeated every 20 seconds. The hERG tail current was a pure hERG current. A maximum current triggered by the second square wave was detected, after the maximum current was stable, the compounds were tested through perfusion, and after reaction was stable, a blocking intensity was calculated.

[4] = iv, i.v. 5.0 mg/kg, 5% DMSO+10% Solutol+85% Saline
[5] = po, p.o. 5.0 mg/kg, 0.5% sodium methylcellulose aqueous solution

SMILES | AUC(0-t) [1, 4] [ng·h/mL] | Cmax [1, 4] [ng/mL] | Tmax [1, 4] [h] | half-life [1, 4] [h] | bioavailability [1] [%] | AUC(0-t) [1, 5] [ng·h/mL] | Cmax [1, 5] [ng/mL] | Tmax [1, 5] [h] | half-life [1, 5] [h] | IC50 [2] [nM] | IC50 [3] [nM]
COc1ccc(-c2c(-c3ccc(C#N)c(F)c3)nc(N3CCC(N)CC3)n(C)c2=O)cc1F [CC-90011, reference compound] | 906 ± 194 | 895 ± 90.4 | 0.08 | 3.32 ± 0.72 | 32.1 | 299 ± 178 | 49.2 ± 8.71 | 2.67 ± 1.15 | 4.15 ± 0.7 | 3.18 | –
CC(C)(O)Cn1ncc2cc(-c3c(C#N)cc(N4CCC(N)CC4)nc3-c3ccc(C#N)c(F)c3)c(F)cc21 [Compound 16, 6-(4-aminopiperid-1-yl)-2-(4-cyano-3-fluorophenyl)-3-(6-fluoro-1-(2-hydroxyl-2-methylpropyl)-1H-indazol-5-yl)isonicotinonitrile] | 1490 ± 157 | 765 ± 181 | 0.08 | 5.61 ± 1.29 | 46.2 | 693 ± 248 | 75.2 ± 20.3 | 4 | 4.73 ± 0.22 | 0.59 | > 10000
